Results taken from ChEMBL document CHEMBL5154741, “Antibacterial alkylguanidino ureas: Molecular simplification approach, searching for membrane-based MoA” (Eur J Med Chem, 2022).
Values after ≈ are worked out from the molar mass of the structure shown. Active and inactive are the calls of the source. The calls are words filed in the database; no cut-off is given here.

Columns and labels:
Enterococcus faecalis = assay: Antibacterial activity against Enterococcus faecalis ATCC 19433 assessed as bacterial growth inhibition incubated for 18 hrs by micro-dilution broth method; format: functional
Pseudomonas aeruginosa = assay: Antibacterial activity against Pseudomonas aeruginosa ATCC 27853 assessed as bacterial growth inhibition incubated for 18 hrs by micro-dilution broth method; format: functional
Staphylococcus aureus = assay: Antibacterial activity against Staphylococcus aureus ATCC 25923 assessed as bacterial growth inhibition incubated for 18 hrs by micro-dilution broth method; format: functional
Lipid bilayer [1] = assay: Binding affinity to bacterial membrane mimic POPG large unilamellar vesicle assessed as bathochromic shift at 125 uM measured at t = 0 by UV-Vis spectrophotometric analysis
Acinetobacter baumannii [2] = assay: Antibacterial activity against Acinetobacter baumannii ATCC 17978 assessed as bacterial growth inhibition incubated for 18 hrs by micro-dilution broth method; format: functional
Bacillus subtilis = assay: Antibacterial activity against Bacillus subtilis ATCC 6633 assessed as bacterial growth inhibition incubated for 18 hrs by CLSI based micro-dilution broth method; format: functional
Streptococcus pyogenes = assay: Antibacterial activity against Streptococcus pyogenes ATCC 12344 assessed as bacterial growth inhibition incubated for 18 hrs by micro-dilution broth method; format: functional
Klebsiella pneumoniae [3] = assay: Antibacterial activity against Klebsiella pneumoniae ATCC 13833 assessed as bacterial growth inhibition incubated for 18 hrs by micro-dilution broth method; format: functional
Lipid bilayer [4] = assay: Binding affinity to bacterial membrane mimic POPG large unilamellar vesicle assessed as hyperchromic shift at 125 uM measured after 1 hr by UV-Vis spectrophotometric analysis
Escherichia coli = assay: Antibacterial activity against Escherichia coli CCUG assessed as bacterial growth inhibition incubated for 18 hrs by micro-dilution broth method; format: functional
Klebsiella pneumoniae [5] = assay: Antibacterial activity against pan drug-resistant Klebsiella pneumoniae S1-081Rb assessed as bacterial growth inhibition incubated for 18 hrs by CLSI based micro-dilution broth method; format: functional
Enterobacter cloacae = assay: Antibacterial activity against Enterobacter cloacae VA-417/02 assessed as bacterial growth inhibition incubated for 18 hrs by CLSI based micro-dilution broth method; format: functional
Acinetobacter baumannii [6] = assay: Antibacterial activity against Acinetobacter baumannii AC-54/97 assessed as bacterial growth inhibition incubated for 18 hrs by CLSI based micro-dilution broth method; format: functional

| Compound | MIC (Enterococcus faecalis) [µg/mL] | MIC (Pseudomonas aeruginosa) [µg/mL] | MIC (Staphylococcus aureus) [µg/mL] | MIC (Acinetobacter baumannii [2]) [µg/mL] | MIC (Bacillus subtilis) [µg/mL] | MIC (Streptococcus pyogenes) [µg/mL] | MIC (Klebsiella pneumoniae [3]) [µg/mL] | MIC (Escherichia coli) [µg/mL] | Activity (Lipid bilayer [1]) | Activity (Lipid bilayer [4]) | MBC (Klebsiella pneumoniae [5]) [µg/mL] | MIC (Klebsiella pneumoniae [5]) [µg/mL] | MBC (Enterobacter cloacae) [µg/mL] | MIC (Enterobacter cloacae) [µg/mL] | MBC (Acinetobacter baumannii [6]) [µg/mL] | MIC (Acinetobacter baumannii [6]) [µg/mL] |
| --- | --- | --- | --- | --- | --- | --- | --- | --- | --- | --- | --- | --- | --- | --- | --- | --- |
| COLISTIN |  | 0.5 |  | 1 |  |  | 0.5 | 0.5 |  |  |  |  |  |  |  |  |
| CCCCCCCCN(CCCCCCCCNC(=N)NCC1CC1)C(=O)N(CCCCCCCC)CCCCCCCCNC(=N)NCC1CC1.O=C(O)C(F)(F)F | 32 | > 128 | > 128 | > 128 | 128 | 8 | 128 | > 128 |  |  |  |  |  |  |  |  |
| CNC(=O)NCCCCCCCCNC(=N)NCC1CC1.O=C(O)C(F)(F)F | 64 | > 128 | 32 | > 128 | 64 | 128 | 128 | 128 |  |  |  |  |  |  |  |  |
| N=C(N)NCCCCCCCCN(CCCCCCCCN)C(=O)N(CCCCCCCCNC(=N)N)CCCCCCCCNC(=N)N | 4 (≈ 5.75 µM) | 16 (≈ 23 µM) | 1 (≈ 1.44 µM) | 16 (≈ 23 µM) | 1 (≈ 1.44 µM) | 0.25 (≈ 0.36 µM) | 8 (≈ 11.5 µM) | 2 (≈ 2.88 µM) | Active | Active | 16 (≈ 23 µM) | 16 (≈ 23 µM) | 8 (≈ 11.5 µM) | 8 (≈ 11.5 µM) | 8 (≈ 11.5 µM) | 8 (≈ 11.5 µM) |
| N=C(NCCCCCCCCN(CCCCCCCCNC(=N)NCC1CC1)C(N)=O)NCC1CC1.O=C(O)C(F)(F)F | 16 | 128 | 16 | 128 | 8 | 2 | 32 | 32 |  |  |  |  |  |  |  |  |
| CCCCCCCCN(CCCCCCCC)C(=O)N(CCCCCCCC)CCCCCCCCNC(=N)NCC1CC1.O=C(O)C(F)(F)F | 128 | > 128 | > 128 | > 128 | 64 | 16 | > 128 | > 128 |  |  |  |  |  |  |  |  |
| N=C(NCCCCCCCCNC(=O)N(CCCCCCCCNC(=N)NCC1CC1)CCCCCCCCNC(=N)NCC1CC1)NCC1CC1.O=C(O)C(F)(F)F | 8 | 64 | 4 | 64 | 1 | 1 | 8 | 8 | Active | Active |  |  |  |  |  |  |
| CCCCCCCCN(CCCCCCCC)C(=O)N(CCCCCCCCNC(=N)NCC1CC1)CCCCCCCCNC(=N)NCC1CC1.O=C(O)C(F)(F)F | 128 | > 128 | > 128 | 128 | 128 | 4 | 64 | 128 |  |  |  |  |  |  |  |  |
| CCCCCCCCCC(=O)N[C@@H](Cc1c[nH]c2ccccc12)C(=O)N[C@H](CC(N)=O)C(=O)N[C@@H](CC(=O)O)C(=O)N[C@@H]1C(=O)NCC(=O)N[C@@H](CCCN)C(=O)N[C@@H](CC(=O)O)C(=O)N[C@H](C)C(=O)N[C@@H](CC(=O)O)C(=O)NCC(=O)N[C@H](CO)C(=O)N[C@@H]([C@H](C)CC(=O)O)C(=O)N[C@@H](CC(=O)c2ccccc2N)C(=O)O[C@@H]1C | 1 (≈ 0.617 µM) |  | 0.12 (≈ 0.074 µM) |  | 1 (≈ 0.617 µM) | 0.5 (≈ 0.309 µM) |  |  |  |  |  |  |  |  |  |  |
| N=C(N)NCCCCCCCCN(CCCCCCCCNC(=N)N)C(=O)N(CCCCCCCCNC(=N)N)CCCCCCCCNC(=N)NCC1CC1.O=C(O)C(F)(F)F | 2 | 16 | 2 | 8 | 2 | 1 | 4 | 8 |  |  | 16 | 8 | 8 | 8 | 16 | 8 |
| CN[C@H](CC(C)C)C(=O)N[C@H]1C(=O)N[C@@H](CC(N)=O)C(=O)N[C@H]2C(=O)N[C@H]3C(=O)N[C@H](C(=O)N[C@H](C(=O)O)c4cc(O)cc(O)c4-c4cc3ccc4O)[C@H](O)c3ccc(c(Cl)c3)Oc3cc2cc(c3O[C@@H]2O[C@H](CO)[C@@H](O)[C@H](O)[C@H]2O[C@H]2C[C@](C)(N)[C@H](O)[C@H](C)O2)Oc2ccc(cc2Cl)[C@H]1O [VANCOMYCIN] | 1 (≈ 0.69 µM) |  |  |  | 0.5 (≈ 0.345 µM) | 1 (≈ 0.69 µM) |  |  |  |  |  |  |  |  |  |  |

The next lines start with results.

| MIC (Enterococcus faecalis) [µg/mL] | MIC (Pseudomonas aeruginosa) [µg/mL] | MIC (Staphylococcus aureus) [µg/mL] | MIC (Acinetobacter baumannii [2]) [µg/mL] | MIC (Bacillus subtilis) [µg/mL] | MIC (Streptococcus pyogenes) [µg/mL] | MIC (Klebsiella pneumoniae [3]) [µg/mL] | MIC (Escherichia coli) [µg/mL] | Compound | Activity (Lipid bilayer [1]) | Activity (Lipid bilayer [4]) | MBC (Klebsiella pneumoniae [5]) [µg/mL] | MIC (Klebsiella pneumoniae [5]) [µg/mL] | MBC (Enterobacter cloacae) [µg/mL] | MIC (Enterobacter cloacae) [µg/mL] | MBC (Acinetobacter baumannii [6]) [µg/mL] | MIC (Acinetobacter baumannii [6]) [µg/mL] |
| --- | --- | --- | --- | --- | --- | --- | --- | --- | --- | --- | --- | --- | --- | --- | --- | --- |
| 32 (≈ 52.4 µM) | 128 (≈ 209 µM) | 2 (≈ 3.27 µM) | 64 (≈ 105 µM) | 4 (≈ 6.55 µM) | 16 (≈ 26.2 µM) | 64 (≈ 105 µM) | 32 (≈ 52.4 µM) | N=C(N)NCCCCCCCCN(CCCCCCCCN)C(=O)N(CCCCCCCCN)CCCCCCCCN | Active | Active |  |  |  |  |  |  |
| > 128 | > 128 | > 128 | > 128 | > 128 | > 128 | > 128 | > 128 | CCCCCCCCN(CCCCCCCC)C(=O)N(CCCCCCCC)CCCCCCCC |  |  |  |  |  |  |  |  |
| 64 (≈ 126 µM) | > 128 | 128 (≈ 253 µM) |  | > 128 | 8 (≈ 15.8 µM) | > 128 | 64 (≈ 126 µM) | N=C(NCCCCCCCCNC(=O)NCCCCCCCCNC(=N)NCC1CC1)NCC1CC1 |  |  |  |  |  |  |  |  |
| 2 (≈ 2.46 µM) | 8 (≈ 9.82 µM) | 1 (≈ 1.23 µM) | 4 (≈ 4.91 µM) | 2 (≈ 2.46 µM) | 1 (≈ 1.23 µM) | 2 (≈ 2.46 µM) | 2 (≈ 2.46 µM) | CCCCCCCCN(CCCCCCNC(=N)NCC1CC1)C(=O)N(CCCCCCCCNC(=N)NCC1CC1)CCCCCCCCNC(=N)NCC1CC1 |  |  |  |  |  |  |  |  |
| 2 (≈ 2.64 µM) | 64 (≈ 84.4 µM) | 2 (≈ 2.64 µM) | 32 (≈ 42.2 µM) | 1 (≈ 1.32 µM) | 1 (≈ 1.32 µM) | 8 (≈ 10.6 µM) | 4 (≈ 5.28 µM) | CCCCCCN(CCCCCCNC(=N)NCC1CC1)C(=O)N(CCCCCCCCNC(=N)NCC1CC1)CCCCCCNC(=N)NCC1CC1 |  |  |  |  |  |  |  |  |
| 8 (≈ 12.2 µM) | 32 (≈ 49 µM) | 0.5 (≈ 0.766 µM) | 16 (≈ 24.5 µM) | 0.5 (≈ 0.766 µM) | 0.25 (≈ 0.383 µM) | 16 (≈ 24.5 µM) | 2 (≈ 3.06 µM) | N=C(N)NCCCCCCCCN(CCCCCCCCNC(=N)N)C(=O)N(CCCCCCCCN)CCCCCCCCN |  |  |  |  |  |  |  |  |
| 1 (≈ 1.23 µM) | 16 (≈ 19.6 µM) | 2 (≈ 2.46 µM) | 8 (≈ 9.82 µM) | 2 (≈ 2.46 µM) | 1 (≈ 1.23 µM) | 8 (≈ 9.82 µM) | 4 (≈ 4.91 µM) | CCCCCCN(CCCCCCCCNC(=N)NCC1CC1)C(=O)N(CCCCCCCCNC(=N)NCC1CC1)CCCCCCCCNC(=N)NCC1CC1 |  |  |  |  |  |  |  |  |
| 16 (≈ 28.1 µM) | 32 (≈ 56.2 µM) | 8 (≈ 14.1 µM) | 16 (≈ 28.1 µM) | 4 (≈ 7.03 µM) | 4 (≈ 7.03 µM) | 16 (≈ 28.1 µM) | 32 (≈ 56.2 µM) | NCCCCCCCCN(CCCCCCCCN)C(=O)N(CCCCCCCCN)CCCCCCCCN |  |  |  |  |  |  |  |  |
| 2 (≈ 2.37 µM) | 8 (≈ 9.5 µM) | 16 (≈ 19 µM) | 4 (≈ 4.75 µM) | 2 (≈ 2.37 µM) | 1 (≈ 1.19 µM) | 4 (≈ 4.75 µM) | 4 (≈ 4.75 µM) | CCCCCCCCN(CCCCCCCCNC(=N)NCC1CC1)C(=O)N(CCCCCCCCNC(=N)NCC1CC1)CCCCCCCCNC(=N)NCC1CC1 | Active | Active |  |  |  |  |  |  |
| > 128 | > 128 | 128 (≈ 237 µM) | > 128 | 32 (≈ 59.2 µM) | 128 (≈ 237 µM) | > 128 | > 128 | N=C(N)NCCCCCCN(CCCCCCN)C(=O)N(CCCCCCN)CCCCCCNC(=N)N |  |  |  |  |  |  |  |  |
| 64 (≈ 123 µM) | > 128 | 128 (≈ 246 µM) | > 128 | 32 (≈ 61.4 µM) | 8 (≈ 15.4 µM) | 128 (≈ 246 µM) | 128 (≈ 246 µM) | CNC(=O)N(CCCCCCCCNC(=N)NCC1CC1)CCCCCCCCNC(=N)NCC1CC1 |  |  |  |  |  |  |  |  |
